Data on 40 molecules can be found in US5202339A, “Hydantoin derivatives” (Mochida Pharmaceutical Co., Ltd., priority 1987, dated 1993).

pIC50: −log10 of the molar value.

The target of assay [1] is T1, rat lens aldose reductase (Rattus norvegicus, UniProt P07943).
T1 construct: rat lens aldose reductase; from tissue; host or cells: rat lens
Briefly: inhibitory activity on rat lens aldose reductase (Experimental Example 1). Type of assay: biochemical. Particulars: pH 6.2, 10 mM DL-glyceraldehyde, 0.16 mM NADPH. As to the method:
The inhibitory activities of hydantoin derivatives on rat lens aldose reductase were measured according to the procedure of Inagaki et al. (K. Inagaki et al., Arch. Biochem. Biophys., 216, 337 (1982)) with slight modifications. Assays were performed in 0.1M phosphate buffer (pH 6.2) containing 0.4M ammonium sulfate, 10 mM DL-glyceraldehyde, 0.16 mM nicotinamide adenine dinucleotide phosphate, reduced form (NADPH) and aldose reductase (0.010-0.016 units) in a total volume of 1.0 ml. To this mixture was added 10 μl of the solution of each hydantoin derivative to be tested, and the decrease in absorbance at 340 nm was measured with a spectrophotometer.
The concentrations of typical hydantoin derivatives of the present invention required to produce 50% inhibition are shown in table 1.

Assay [2] deals with T2, bovine lens aldose reductase (Bos taurus, UniProt P16116).
T2 construct: bovine lens aldose reductase preparation was used; from tissue; host or cells: bovine lens
Briefly: inhibitory activity on bovine lens aldose reductase (Experimental Example 2). Type of assay: biochemical. The conditions noted are these: for pIC50: pH 6.2, 10 mM DL-glyceraldehyde, 0.16 mM NADPH; for potency compared with compound 13 and 15: in words. Here is the method: Assays were performed in 0.1M phosphate buffer (pH 6.2) containing 0.4M ammonium sulfate, 10 mM DL-glyceraldehyde, 0.16 mM nicotinamide adenine dinucleotide phosphate, reduced form (NADPH) and aldose reductase (0.010-0.016 units) in a total volume of 1.0 ml. To this mixture was added 10 μl of the solution of each hydantoin derivative to be tested, and the decrease in absorbance at 340 nm was measured with a spectrophotometer.

Assay [3] deals with Streptozotocin-Diabetic Rats. Briefly: Hypoglycemic Effects in Streptozotocin-Diabetic Rats (Experimental Example 4). Type of assay: in vivo, rat (male Wistar). Particulars: Rattus norvegicus; STZ-diabetic rats, 100 mg/kg oral, 6 hrs after administration; read-out: Lowering rate of serum glucose (%). As to the method: Diabetic rats were produced according to the method of Junod et al. (A. Junod et al., J. Clin. Invest., 48, 2129 (1969)). Briefly, male Wistar rats were given 26.5 mg/kg of streptozotocin (STZ) intravenously. Four days later, the rats with serum glucose levels of between 400 and 500 mg/dl were used. After being fasted for 4 hrs, groups of 5 diabetic rats were orally administered with the compounds of the present invention or gliclazide in a dose of 100 mg/kg. Blood sample were collected from the orbital vein before and 6 hrs after the administration. Serum glucose levels were determined by the enzymatic method with an autoanalyzer (Cobas Fara®, Roche).

`O=C1CN(S(=O)(=O)c2cc3ccccc3cc2Cl)C(=O)N1` [Compound 2, 1-(3-chloronaphthalen-2-ylsulfonyl)hydantoin] showed a pIC50 in assay [1] of 6.80.

Consider `O=C1CN(S(=O)(=O)c2ccc3cc(Cl)ccc3c2)C(=O)N1` [Compound 4, 1-(6-chloronaphthalen-2-ylsulfonyl)hydantoin], for which the pIC50 in assay [1] is 6.85.

With `O=C1CN(S(=O)(=O)c2ccc3ccc(Cl)cc3c2)C(=O)N1` [Compound 5, 1-(7-chloronaphthalen-2-ylsulfonyl)hydantoin], the pIC50 in assay [1] was 6.41.

Consider `O=C1CN(S(=O)(=O)c2ccc3cccc(Cl)c3c2)C(=O)N1` [Compound 6, 1-(8-chloronaphthalen-2-ylsulfonyl)hydantoin], for which the pIC50 in assay [1] is 6.34. The pIC50 values of the last two molecules are within 0.2 log units of each other.

Molecule `O=C1CN(S(=O)(=O)c2ccc3ccccc3c2Br)C(=O)N1` [Compound 8, 1-(1-bromonaphthalen-2-ylsulfonyl)hydantoin] had a pIC50 in assay [1] of 7.03.

Consider `O=C1CN(S(=O)(=O)c2ccc3cc(Br)ccc3c2)C(=O)N1` [Compound 10, 1-(6-bromonaphthalen-2-ylsulfonyl)hydantoin], for which the pIC50 in assay [1] is 6.77.

In the case of `O=C1CN(S(=O)(=O)c2ccc3c([N+](=O)[O-])cccc3c2)C(=O)N1` [Compound 11, 1-(5-nitronaphthalen-2-ylsulfonyl)hydantoin], in assay [1], the pIC50 is 7.00. This pIC50 lies 0.23 log units higher than the previous one.

Turning to `Cc1cc2ccccc2cc1S(=O)(=O)N1CC(=O)NC1=O` [Compound 12, 1-(3-methylnaphthalen-2-ylsulfonyl)hydantoin], the pIC50 in assay [1] is 6.85.

`Cc1ccc2ccc(S(=O)(=O)N3CC(=O)NC3=O)cc2c1` [Compound 14, 1-(7-methylnaphthalen-2-ylsulfonyl)hydantoin] gave a pIC50 in assay [1] of 6.46.

In assay [2], `O=C1CN(S(=O)(=O)c2cc3ccccc3s2)C(=O)N1` [Compound 16, 1-(benzo[b]thiophen-2-ylsulfonyl)hydantoin] showed a pIC50 of 6.41. In addition, the inhibition in vivo at 100 mg/kg in assay [3] amounted to 33.5%.

Turning to `O=C1CN(S(=O)(=O)c2sc3ccccc3c2Cl)C(=O)N1` [Compound 17, 1-(3-chlorobenzo[b]thiophen-2-yl-sulfonyl)hydantoin], in assay [2], the “potency compared with compound 13 and 15” value is “as potent as compound 13 and 15”; the pIC50 is 6.92.

Regarding `O=C1CN(S(=O)(=O)c2cc3cc(Cl)ccc3s2)C(=O)N1` [Compound 18, 1-(5-chlorobenzo[b]thiophen-2-yl-sulfonyl)hydantoin], in assay [2], the “potency compared with compound 13 and 15” value is “as potent as compound 13 and 15”; the pIC50 is 6.62.

Turning to `O=C1CN(S(=O)(=O)c2nc3ccccc3s2)C(=O)N1` [Compound 22, 1-(benzothiazol-2-ylsulfonyl)hydantoin], the pIC50 in assay [2] was 6.47. In addition, the inhibition in vivo at 100 mg/kg in assay [3] is 15%.

`O=C1CN(S(=O)(=O)c2ccc3oc(=O)ccc3c2)C(=O)N1` [Compound 23, 1-(coumarin-6-ylsulfonyl)hydantoin]: in assay [2], the “potency compared with compound 13 and 15” value is “as potent as compound 13 and 15”; the pIC50 is 6.66.

Consider `O=C1CN(S(=O)(=O)c2cc(Br)c(Br)s2)C(=O)N1` [Compound 25, 1-(4,5-dibromothiophen-2-ylsulfonyl)hydantoin], for which the pIC50 in assay [2] is 6.59.

For `O=C1CN(S(=O)(=O)c2cc3ccc(Cl)cc3s2)C(=O)N1` [Compound 26, 1-(6-chlorobenzo[b]thiophen-2-yl-sulfonyl)hydantoin], in assay [2], the pIC50 was 6.57. Moreover, in assay [3], the inhibition in vivo at 100 mg/kg was found to be 33.1%.

`O=C1CN(S(=O)(=O)c2cc3cccc(Cl)c3s2)C(=O)N1` [Compound 27, 1-(7-chlorobenzo[b]thiophen-2-yl-sulfonyl)hydantoin] had a pIC50 in assay [2] of 6.72.

`CC(C)c1c(S(=O)(=O)N2CC(=O)NC2=O)sc2ccccc12` [Compound 28, 1-(3-isopropylbenzo[b]thiophen-2-yl-sulfonyl)hydantoin] showed a negative-log IC50 (pIC50) in assay [2] of 6.85.

`O=C1CN(S(=O)(=O)c2sc3ccccc3c2C(F)(F)F)C(=O)N1` [Compound 29, 1-(3-trifluoromethylbenzo[b]thiophen-2-ylsulfonyl)hydantoin] showed a pIC50 in assay [2] of 6.89.

Take `O=C1CN(S(=O)(=O)c2sc3ccccc3c2Br)C(=O)N1` [Compound 30, 1-(3-bromobenzo[b]thiophen-2-yl-sulfonyl)hydantoin]: the pIC50 in assay [2] is 6.92.

For `COc1c(S(=O)(=O)N2CC(=O)NC2=O)sc2ccccc12` [Compound 31, 1-(3-methoxybenzo[b]thiophen-2-yl-sulfonyl)hydantoin], the pIC50 in assay [2] was 6.57.

For the molecule `CS(=O)(=O)c1c(S(=O)(=O)N2CC(=O)NC2=O)sc2ccccc12` [Compound 32, 1-(3-methylsulfonylbenzo[b]thiophen-2-ylsulfonyl)hydantoin], the pIC50 in assay [2] is 6.42.

For `N#Cc1c(S(=O)(=O)N2CC(=O)NC2=O)sc2ccccc12` [Compound 33, 1-(3-cyanobenzo[b]thiophen-2-yl-sulfonyl)hydantoin], in assay [2], the pIC50 was 6.72. Against the preceding molecule, the pIC50 is 0.30 log units higher.

The molecule `O=C1CN(S(=O)(=O)c2sc3c(F)cccc3c2Br)C(=O)N1` [Compound 34, 1-(3-bromo-7-fluorobenzo[b]thiophen-2-ylsulfonyl)hydantoin] showed a pIC50 in assay [2] of 7.07. Further, the inhibition in vivo at 100 mg/kg in assay [3] was 13.2%.

Turning to `O=C1CN(S(=O)(=O)c2c(Cl)sc3ccccc23)C(=O)N1` [Compound 35, 1-(2-chlorobenzo[b]thiophen-3-yl-sulfonyl)hydantoin], the pIC50 in assay [2] was 6.52. Besides, the inhibition in vivo at 100 mg/kg in assay [3] came out at 14%.

In assay [2], `O=C1CN(S(=O)(=O)c2cc3c(I)cccc3o2)C(=O)N1` [Compound 36, 1-(4-iodobenzo[b]furan-2-ylsulfonyl)hydantoin] had a pIC50 of 6.62.

`O=C1CN(S(=O)(=O)c2cc3c(Cl)cc(Cl)cc3o2)C(=O)N1` [Compound 37, 1-(4,6-dichlorobenzo[b]furan-2-yl-sulfonyl)hydantoin]: the pIC50 in assay [2] was 6.77. Besides, the inhibition in vivo at 100 mg/kg in assay [3] amounted to 14.5%.

In assay [2], `O=C1CN(S(=O)(=O)c2cc3cc(F)ccc3s2)C(=O)N1` [Compound 39, 1-(5-fluorobenzo[b]thiophen-2-yl-sulfonyl)hydantoin] showed a pIC50 of 6.49. In assay [3], the inhibition in vivo at 100 mg/kg is 16%.

Molecule `O=C1CN(S(=O)(=O)c2nsc3ccccc23)C(=O)N1` [Compound 41, 1-(benzo[b]isothiazol-3-ylsulfonyl)hydantoin] gave a pIC50 in assay [2] of 6.33. In addition, the inhibition in vivo at 100 mg/kg in assay [3] was 23.6%.

In assay [2], `O=C1CN(S(=O)(=O)c2cc3cc([N+](=O)[O-])ccc3s2)C(=O)N1` [Compound 42, 1-(5-nitrobenzo[b]thiophen-2-yl-sulfonyl)hydantoin] gave a pIC50 of 6.57.

Take `O=C1CN(S(=O)(=O)c2cc3cc(C(=O)O)ccc3s2)C(=O)N1` [Compound 43, 1-(5-carboxybenzo[b]thiophen-2-yl-sulfonyl)hydantoin]: the pIC50 in assay [2] is 6.40.

The molecule `O=C1CN(S(=O)(=O)c2oc3cc(Cl)cc(Cl)c3c2Br)C(=O)N1` [Compound 46, 1-(3-bromo-4,6-dichlorobenzo[b]furan-2-ylsulfonyl)hydantoin] showed a pIC50 in assay [2] of 7.27. Against the preceding molecule, the pIC50 is 0.87 log units higher.

For `O=C1CN(S(=O)(=O)c2cc3cccc(F)c3o2)C(=O)N1` [Compound 48, 1-(7-fluorobenzo[b]furan-2-ylsulfonyl)hydantoin], the inhibition in vivo at 100 mg/kg in assay [3] stood at 45.9%.

As for `O=C1CN(S(=O)(=O)c2oc3c(F)cccc3c2Br)C(=O)N1` [Compound 49, 1-(3-bromo-7-fluorobenzo[b]furan-2-yl-sulfonyl)hydantoin], the inhibition in vivo at 100 mg/kg in assay [3] is 49.2%.

As for `O=C1CN(S(=O)(=O)c2ccc3ccccc3c2F)C(=O)N1` [Compound 50, 1-(1-fluoronaphthalen-2-ylsulfonyl)hydantoin], the inhibition in vivo at 100 mg/kg in assay [3] came to 48.8%.

With `O=C1CN(S(=O)(=O)c2cc3c(Br)cccc3o2)C(=O)N1` [Compound 51, 1-(4-bromobenzo[b]furan-2-ylsulfonyl)hydantoin], the inhibition in vivo at 100 mg/kg in assay [3] stood at 11%.

For `O=C1CN(S(=O)(=O)c2cc3ccc(Br)cc3o2)C(=O)N1` [Compound 52, 1-(6-bromobenzo[b]furan-2-ylsulfonyl)hydantoin], the inhibition in vivo at 100 mg/kg in assay [3] is 29%.

For `O=C1CN(S(=O)(=O)c2oc3ccccc3c2I)C(=O)N1` [Compound 53, 1-(3-iodobenzo[b]furan-2-ylsulfonyl)hydantoin], the inhibition in vivo at 100 mg/kg in assay [3] stood at 19%.

For the molecule `O=C1CN(S(=O)(=O)c2oc3cc(Br)ccc3c2Br)C(=O)N1` [Compound 54, 1-(3,6-dibromobenzo[b]furan-2-yl-sulfonyl)hydantoin], the inhibition in vivo at 100 mg/kg in assay [3] was 29%.

`O=C1CN(S(=O)(=O)c2ccc3ccccc3c2)C(=O)N1` [Compound A, 1-(naphthalene-2-ylsulfonyl)hydantoin, reference compound] gave a pIC50 in assay [1] of 6.18.
